Results as given in PubChem BioAssay (NCI).
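Exposure lasted 48 hours, with cells grown in 96-well plates and compounds tested at five concentrations. GI50 = concentration required for 50% inhibition of growth. TGI denotes the concentration required for complete inhibition of growth.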

How the values were obtained:
Test in all cases: NCI-60 cell line screen, 48 h
OVCAR-4 ovarian = system: OVCAR-4 ovarian
UO-31 renal = system: UO-31 renal
SF-539 CNS = system: SF-539 CNS
SN12C renal = system: SN12C renal
786-0 renal = system: 786-0 renal
HCC-2998 colon = system: HCC-2998 colon
NCI-H23 lung = system: NCI-H23 lung
HOP-92 NSCLC = system: HOP-92 NSCLC
NCI-H460 lung = system: NCI-H460 lung
SR leukemia = system: SR leukemia

| SMILES | TGI (OVCAR-4 ovarian) [µM] | TGI (UO-31 renal) [µM] | TGI (SF-539 CNS) [µM] | TGI (SN12C renal) [µM] | TGI (786-0 renal) [µM] | TGI (HCC-2998 colon) [µM] | TGI (NCI-H23 lung) [µM] | GI50 (OVCAR-4 ovarian) [µM] | GI50 (UO-31 renal) [nM] | GI50 (786-0 renal) [µM] | GI50 (HCC-2998 colon) [µM] | GI50 (NCI-H23 lung) [µM] | GI50 (HOP-92 NSCLC) [nM] | TGI (HOP-92 NSCLC) [µM] | GI50 (NCI-H460 lung) [µM] | TGI (NCI-H460 lung) [µM] | GI50 (SF-539 CNS) [µM] | GI50 (SN12C renal) [µM] | GI50 (SR leukemia) [µM] | TGI (SR leukemia) [µM] |
| --- | --- | --- | --- | --- | --- | --- | --- | --- | --- | --- | --- | --- | --- | --- | --- | --- | --- | --- | --- | --- |
| O=C1C=CC(=O)c2c1nc(CBr)[nH]c2=O | > 100 | > 100 | > 100 | > 100 | > 100 | > 100 | > 100 |  |  |  |  |  |  |  |  |  |  |  |  |  |
| CCOCCOCCOCCOCCOCCOCCOCCOCCOCCO (tested in a mixture with another compound) | 2.84 | 18.7 |  |  | 14.4 | 6.25 | 5.32 | 0.717 | 1580 | 2.83 | 1.65 | 0.957 | 643 | 2.9 | 1.2 | 6.82 |  |  |  |  |
| O=C1Cc2cc(CCN3CCNCC3)c(Cl)cc2N1 | > 100 |  | > 100 | > 100 | > 100 | > 100 | > 100 | 87.8 |  | > 100 | 46.6 | 46.4 |  |  | 22.9 | > 100 | > 100 | 6 | 6.2 | > 100 |
| CCc1c(C)c2cc(-n3c(-c4ccc(OC)cc4)csc3=N)c(O)c(C)c2oc1=O | 4.43 | 3.65 | 7.25 | 4.89 | 4.72 | 10.2 | 5.16 | 1.52 | 687 | 1.7 | 3.09 | 1.51 | 1880 | 7.76 | 2.25 | 10.6 | 2.14 | 1.82 |  |  |
| O=C(N/C(=C\c1ccc(/C=C(\NC(=O)c2ccccc2)c2nc3c(O)nc(S)nc3[nH]2)cc1)c1nc2c(O)nc(S)nc2[nH]1)c1ccccc1 | > 100 | > 100 | > 100 | > 100 | > 100 | > 100 | > 100 |  |  |  |  |  |  | > 100 |  | > 100 |  |  |  |  |
| CCN(CC)C(=S)SS(C)(=O)=O | 34.7 | 37.3 | 43.7 | 29.9 | 33.3 |  | 35.4 |  |  |  |  |  |  | 54.2 |  |  |  |  |  |  |
| N#Cc1ccc(C2SCc3nc4ccccc4n32)cc1 (configuration not stated) | > 100 | 73.6 | > 100 | > 100 | > 100 | > 100 | > 100 |  |  |  |  |  |  |  |  | > 100 |  |  |  |  |
| Cc1ccc(S(=O)(=O)C2CC2(Cl)Cl)cc1 (configuration not stated) | 13.8 | > 100 | > 100 | 35.8 | 43.3 | > 100 | 62.5 |  |  |  |  |  |  | 47.8 |  | > 100 |  |  |  |  |
| S=C(SSC(=S)N1CCCCC1)N1CCCCC1 | 48.9 | > 100 | 32.6 | 50.4 | 28.9 | > 100 | 36 | 9.65 | 19200 | 14.5 | 28.9 | 16.3 | 30700 | > 100 | 10.9 | 41.5 | 14.2 | 17.2 |  |  |
| O=C1C(Cl)=C(NCCCN(CCCNC2=C(Cl)C(=O)c3ccccc3C2=O)C2=C(Cl)C(=O)c3ccccc3C2=O)C(=O)c2ccccc21 | 2.85 | 5.93 | 6.71 | 3.51 | 18.2 | 6.37 | 5.26 | 1.49 | 1250 | 4.62 | 2.45 | 1.69 | 2230 | 14 | 3.02 | > 100 | 2.45 | 1.51 |  |  |
| CC1=C[C@@H]2c3c(c(O)c(O)c4oc5cc(O)cc(O)c5c(=O)c34)[C@@H](c3cc(O)c(O)c4oc5cc(O)cc(O)c5c(=O)c34)[C@@H]2C(C)(C)C1 | 14.7 | 16.3 | 17.2 | 23 | 11.5 | 15.2 | 14.5 | 3.26 | 3830 | 2.69 | 3.87 | 3.33 | 1850 | 6.6 | 1.1 | 8.31 | 4.7 | 3.91 |  |  |
| Cc1[nH]c2cc([N+](=O)[O-])ccc2c1[N+](=O)[O-] | 92 | 36.2 | 57.1 | 95 | > 100 | 52.7 | 58.6 |  |  |  |  |  |  | 23.8 |  | 70.3 |  |  |  |  |
| CC(=O)CC(=O)Nc1ccccc1C(F)(F)F | > 100 | > 100 | > 100 | > 100 | > 100 | > 100 | > 100 |  |  |  |  |  |  | > 100 |  | > 100 |  |  |  |  |
| COC(=O)c1cc2cc(/C=C3/SC(=S)N(N(C(C)=O)C(C)=O)C3=O)oc2n1Cc1ccccc1 | > 100 | > 100 | 39.3 | 56 | 38.6 | 40.5 | 44.6 | 38.2 | 29700 | 21.1 | 17.3 | 21.4 | 44000 | > 100 | 19.3 | > 100 | 20.4 | 20.7 |  |  |
| CCOC(=O)C1C(=O)CC(=O)C2CCCCC21 (configuration not stated) | > 100 | > 100 | > 100 | > 100 | > 100 |  | > 100 |  |  |  |  |  |  | > 100 |  | > 100 |  |  |  |  |
| CC(=O)C1C(=O)C(=O)N(CCN2C(=O)C(=O)C(C(C)=O)C2=O)C1=O (configuration not stated) | > 100 | > 100 | > 100 | > 100 | > 100 | > 100 | > 100 |  |  |  |  |  |  | > 100 |  | > 100 |  |  |  |  |
| CC(=O)[CH-]C(=O)c1ccccc1.CC(=O)[CH-]C(=O)c1ccccc1.CC(=O)[CH-]C(=O)c1ccccc1.[Ga+3] | 34.5 | 76.2 | 32.3 | 33.2 | 37.1 | 29.9 | 48.3 | 17.1 | 26700 | 18.2 | 13.9 | 20.2 | 29800 | 51.9 | 11.8 | 28.7 | 16.5 | 15 |  |  |
| N#Cc1c(N)nc(N2CCOCC2)c(C#N)c1-c1c(Cl)cccc1Cl | > 100 | 44.1 | 49.8 | 33.2 | 36.7 | 2.48 |  | 13.1 | 7790 | 12.9 | 0.0181 |  | 4680 | 46 | 6.39 | 44.6 | 12.2 | 6.17 |  |  |
| COc1cc(C(=O)O[C@H](C(=O)NCCCCNC(=O)[C@@H](OC(=O)c2cc(OC)cc3c(C)cccc23)[C@]2(C)CO2)[C@]2(C)CO2)c2cccc(C)c2c1 | 2.08 | > 100 | 0.266 | 2.39 | 1.25 | 0.343 | 0.118 | 0.218 | 466 |  | 0.0442 | < 0.01 | 45.2 | 0.22 | < 0.0354 | 0.228 | < 0.0385 | 0.885 |  |  |
| COC(=O)[C@@]12C3=NO[C@]1(C(=O)OC)C(O[Si](C)(C)C(C)(C)C)[C@@H](OC(C)=O)[C@@H](OC(C)=O)[C@@H]2[C@@H](OCc1ccccc1)CC3 (some centres not stated) | > 100 | > 100 | > 100 | > 100 | > 100 | > 100 | > 100 |  |  |  |  |  |  | > 26.1 |  | > 100 |  |  |  |  |
| O=C(CI)Nc1ccc(Br)cc1 | 7.25 | 3.17 | 3.67 |  | 4.62 | 27.3 | 4.61 | 2.92 | 1630 | 2.23 | 13.4 | 1.87 |  |  | 12.4 | 45.8 | 1.81 |  | 0.365 | > 100 |
| CN(CCCCCl)P(=O)(OCc1ccc([N+](=O)[O-])o1)OCC1OC(n2cc([N+](=O)[O-])c(=O)[nH]c2=O)CC1O (configuration not stated) | 84.8 | > 100 | > 100 | > 100 | > 100 | > 100 | > 100 | 9.75 | > 100000 | 12.7 | 37.7 | 75.2 |  |  | 3.01 | > 100 | 4.51 | 51.9 |  |  |
| CC1=C2C=CC(=O)C[C@@]2(C)CCC1 | > 100 | > 100 | > 100 | > 100 | > 100 | > 100 | > 100 |  |  |  |  |  |  | > 100 |  | > 100 |  |  |  |  |
| CCN(CC)c1ccc(C2N3CCCCC3[C@@H]3c4[nH]c5ccccc5c4CCN23)cc1 (some centres not stated) | > 100 | > 100 | 41.6 | 51.6 | > 100 |  | > 100 |  |  |  |  |  |  | > 100 |  | 55.5 |  |  |  |  |
| COc1cnccc1Nc1nc(-c2nn(Cc3c(F)cc(OCCO)cc3F)c3ccccc23)ncc1OC | 3.68 | 8.43 | 22.9 | 11.1 | 5.44 | > 100 | 8.69 | 1.74 | 1970 | 1.76 | 10 | 2.25 | 634 | > 100 | 2.06 | 10.6 | 10.7 | 1.53 |  |  |
